# In ChEMBL document CHEMBL1201862, “PubChem BioAssay data set” (2004):
#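 Test compounds were applied to cells in 96-well plates for 48 hours at 5 doses. Abbreviation: GI50, concentration required for 50% inhibition of growth.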 Calls of active or inactive are those of the source. No stated cut-off is given here; in the data, active = GI50 up to about 1.1 µM and inactive = higher.
# Tests used:
# Assay in all cases: NCI tumour cell line growth inhibition, 48 h
# DU-145 = tested on: DU-145
# SK-MEL-2 = tested on: SK-MEL-2
# PC-3 = tested on: PC-3
# HCT-116 = tested on: HCT-116
# SW-620 = tested on: SW-620
# EKVX = tested on: EKVX
# NCI-H23 = tested on: NCI-H23
# NCI/ADR-RES = tested on: NCI/ADR-RES
# IGROV-1 = tested on: IGROV-1
# SF-268 = tested on: SF-268
# KM12 = tested on: KM12
# UACC-257 = tested on: UACC-257
# HT-29 = tested on: HT-29
# CAKI-1 = tested on: CAKI-1
# T47D = tested on: T47D
# OVCAR-4 = tested on: OVCAR-4
# A549 = tested on: A549
# 786-0 = tested on: 786-0
# SR = tested on: SR
SMILES,GI50 (DU-145),GI50 (SK-MEL-2),GI50 (PC-3),GI50 (HCT-116),GI50 (SW-620),GI50 (EKVX),GI50 (NCI-H23),GI50 (NCI/ADR-RES),GI50 (IGROV-1),GI50 (SF-268),GI50 (KM12),GI50 (UACC-257),GI50 (HT-29),GI50 (CAKI-1),GI50 (T47D),GI50 (OVCAR-4),GI50 (A549),GI50 (786-0),GI50 (SR)
COc1ccccc1C1(c2c(OC(C)C)c(=O)c2=O)SCCCS1,> 100 µM (inactive),> 100 µM (inactive),> 100 µM (inactive),> 100 µM (inactive),> 100 µM (inactive),> 100 µM (inactive),> 100 µM (inactive),> 100 µM (inactive),> 100 µM (inactive),> 100 µM (inactive),> 100 µM (inactive),> 100 µM (inactive),> 100 µM (inactive),> 100 µM (inactive),> 100 µM (inactive),> 100 µM (inactive),> 100 µM (inactive),> 100 µM (inactive),
COc1cc(/C=C2\N=C(c3ccccc3)N(c3nc4ccc(Sc5ccccc5)cc4[nH]3)C2=O)cc(OC)c1OC,21.8 µM (inactive),15.4 µM (inactive),26.9 µM (inactive),20.7 µM (inactive),25 µM (inactive),38.7 µM (inactive),27 µM (inactive),20.4 µM (inactive),45.4 µM (inactive),26.2 µM (inactive),17.6 µM (inactive),19.6 µM (inactive),21.4 µM (inactive),31.1 µM (inactive),17.9 µM (inactive),41.1 µM (inactive),34.3 µM (inactive),20.4 µM (inactive),
COc1cc(C2c3cc4c(cc3OC3(OC)COC(=O)C23)OCO4)cc(OC)c1OC(C)=O (configuration not stated),2.52 µM (inactive),1.84 µM (inactive),0.429 µM (active),0.785 µM (active),0.552 µM (active),> 35.8 µM (inactive),3.27 µM (inactive),0.323 µM (active),2.21 µM (inactive),6.75 µM (inactive),0.881 µM (active),> 39.4 µM (inactive),2.47 µM (inactive),,> 100 µM (inactive),> 57.8 µM (inactive),1.54 µM (inactive),1.21 µM (inactive),2.53 µM (inactive)
C=CC1(c2ccc(-c3ccccc3)cc2)OCCO1,> 100 µM (inactive),16.6 µM (inactive),35 µM (inactive),47.5 µM (inactive),31.2 µM (inactive),49.2 µM (inactive),34.7 µM (inactive),65.6 µM (inactive),> 100 µM (inactive),> 100 µM (inactive),41.2 µM (inactive),78.9 µM (inactive),28.2 µM (inactive),,51.2 µM (inactive),79.4 µM (inactive),73.8 µM (inactive),46.8 µM (inactive),45.9 µM (inactive)
CC12CC(c3ccccc3O1)C(C(=O)Nc1ccc(Cl)cc1Cl)C(=O)N2 (configuration not stated),27.6 µM (inactive),> 100 µM (inactive),44 µM (inactive),34.3 µM (inactive),24.8 µM (inactive),18.3 µM (inactive),25.9 µM (inactive),36.8 µM (inactive),24.2 µM (inactive),33.8 µM (inactive),> 100 µM (inactive),> 100 µM (inactive),40.1 µM (inactive),45 µM (inactive),20.3 µM (inactive),19.6 µM (inactive),23.2 µM (inactive),19.7 µM (inactive),
CC/C(=C\c1ccc(Cl)c(Cl)c1)[N+](=O)[O-],1.86 µM (inactive),2.28 µM (inactive),2.23 µM (inactive),3.66 µM (inactive),3.03 µM (inactive),2.76 µM (inactive),2.34 µM (inactive),2.27 µM (inactive),1.64 µM (inactive),2.03 µM (inactive),2.96 µM (inactive),1.94 µM (inactive),3.4 µM (inactive),,2.93 µM (inactive),3 µM (inactive),2.1 µM (inactive),1.59 µM (inactive),0.948 µM (active)
Nc1nc(-[n+]2ccc(-c3ccncc3)cc2)nc(Cl)c1Cl,> 100 µM (inactive),57.4 µM (inactive),54.3 µM (inactive),> 100 µM (inactive),25.5 µM (inactive),26.6 µM (inactive),22.5 µM (inactive),> 100 µM (inactive),17.6 µM (inactive),18.4 µM (inactive),43.6 µM (inactive),20.4 µM (inactive),88.5 µM (inactive),,16.5 µM (inactive),> 100 µM (inactive),> 100 µM (inactive),13.5 µM (inactive),20 µM (inactive)
COc1ccc(C2CC(=O)Oc3ccccc3O2)cc1 (configuration not stated),> 100 µM (inactive),,> 100 µM (inactive),> 100 µM (inactive),> 100 µM (inactive),> 100 µM (inactive),> 100 µM (inactive),> 100 µM (inactive),> 100 µM (inactive),> 100 µM (inactive),> 100 µM (inactive),> 100 µM (inactive),> 100 µM (inactive),,> 100 µM (inactive),> 100 µM (inactive),> 100 µM (inactive),> 100 µM (inactive),52.7 µM (inactive)
O=C1CC(NC(=O)C(F)(F)F)c2c(Br)sc(N3CCC(c4ccccc4)CC3)c21 (configuration not stated),22.2 µM (inactive),0.973 µM (active),25.6 µM (inactive),11.1 µM (inactive),43.4 µM (inactive),43.9 µM (inactive),6.7 µM (inactive),69 µM (inactive),> 100 µM (inactive),43.4 µM (inactive),> 100 µM (inactive),13.4 µM (inactive),56.5 µM (inactive),12.9 µM (inactive),4.45 µM (inactive),11.5 µM (inactive),32.8 µM (inactive),20.8 µM (inactive),
CN(C)CC(O)CNC(=O)Nc1ccccc1 (configuration not stated),> 100 µM (inactive),> 100 µM (inactive),> 100 µM (inactive),> 100 µM (inactive),> 100 µM (inactive),> 100 µM (inactive),> 100 µM (inactive),> 100 µM (inactive),> 100 µM (inactive),> 100 µM (inactive),> 100 µM (inactive),> 100 µM (inactive),> 100 µM (inactive),> 100 µM (inactive),> 100 µM (inactive),> 100 µM (inactive),> 100 µM (inactive),> 100 µM (inactive),
CC12CCC(C1)C(C)(C)C2OC(=O)c1ccccc1C(=O)O (configuration not stated),> 100 µM (inactive),> 100 µM (inactive),> 100 µM (inactive),> 100 µM (inactive),> 100 µM (inactive),> 100 µM (inactive),> 100 µM (inactive),> 100 µM (inactive),> 100 µM (inactive),> 100 µM (inactive),> 100 µM (inactive),> 100 µM (inactive),> 100 µM (inactive),> 100 µM (inactive),> 100 µM (inactive),> 100 µM (inactive),> 100 µM (inactive),> 100 µM (inactive),
